Patent US10857112B2, “Small molecule inhibitors of RNA binding motif (RBM) proteins for the treatment of acute cellular injury” (University of Pittsburgh—Of the Commonwealth System of …, priority 2012, dated 2020)

Experiments:
[1] = system: primary rat cortical neurons; assay: STS injury, neuronal viability and cytotoxicity
Procedure: (§1) At D.I.V. 11, ½ media was collected (conditioned media) and mixed with an equal volume fresh neurobasal media (to make the 24 hour treatment media). STS was prepared at the desired concentration in treatment media, with or without experimental drugs (AQ2S or LY294002). The remaining growth maintenance media was replaced with 100 μL, of treatment media per well of a 96-well plate (or 2 mL for a six-well plate) for 24 hours.
(§2) The LDH Cytotoxicity Assay Kit II was purchased from Abcam (Cambridge, Mass., USA). Neurons were cultured in 96-well format and subjected to STS injury ±AQ2S for 24 hours (in 100 μL, total media volume). At 23 hours maximum LDH release (positive control) was prepared by adding 10 μL, cell lysis reagent directly to a few non-injured wells (i.e., no STS or AQ2S). At the end of the 24 hour injury period, 80 μL, of media was transferred to a new 96-well plate. Plates were spun at ˜500 g for 5 minutes. 10 μL, of cell culture treatment media was added to a new black-walled plate and advanced WST detection reagent added. The mix was incubated for ˜15 minutes and absorbance measured (OD 450 nm). Fresh culture media was used as a negative control. Cytotoxicity was calculated using the standard formula: cytotoxicity %=(sample LDH−negative-control LDH)/(maximum LDH release−negative-control LDH)×100.

[2] = in vitro; details: rat, decrease in neuronal viability, 250 nM STS alone
Procedure: as §1, §2

[3] = system: primary rat cortical neurons; assay: H2O2 injury, neuronal viability 24 h (CellTiter-Blue); details: 40 μM H2O2
[4] = system: AKT; assay: Western blot of AKT activation (pAKT473); format: cell-based, rat; details: 50 μM; baseline and 250 nM STS 6 hours
Procedure: AKT is a key pro-survival kinase that is dysregulated by acute brain injury. Many diverse therapies used to prevent neuronal death activate AKT, including small molecules, endogenously derived survival proteins, and other non-pharmacology based treatments like therapeutic hypothermia. To further elucidate the mechanisms of AQ2S-mediated neuroprotection, the level of activated (phosphorylated) AKT was measured by western blot.
Neurons used for Western blot analysis for grown in 6-well plates. Briefly, neurons were treated with experimental compounds for the indicated time/conditions. At the end of each experiment, neurons were washed in ice cold PBS and harvested in 65 μL RIPA buffer containing protease inhibitors, phosphatase inhibitors, and EDTA. Extracts were collected in 0.5 mL tubes and sonicated for 20-30 seconds. Cell extracts were then spun at 4° C./16,000 g/10 minutes and stored at −80° C. until use. Frozen extracts were thawed on ice and protein concentration measured using the BCA assay (PIERCE). […] of sample protein was loaded per well of a 7.5% SDS precast gel (Biorad), and run for 30 minutes to 1 hour at 200 V. Kaleidoscope protein standards (Biorad) were run parallel to neuron extracts. Proteins were then transferred to PDVF membranes (run at 100 V/4° C./1.5 hours). PDVF membranes were washed once in tris buffered saline (TBS) and blocked for 1 hour in tris buffered saline/tween-20 with 7.5% nonfat milk (TBS-T/milk). Blots were incubated overnight at 4° C. with primary antibodies in TBS-T/milk. Cell Signaling Technology: phospho-AKT473, AKT Total, phospho-ERK1/2, ERK Total, cleavage caspase-3. Santa Cruz Antibodies: NF-κB p50 subunit, NF-κB p65 subunit, and beta actin. Calbiochem: 4-HNE antibody. Blots were washed 3 times (5 minutes each) with TBS, and incubated with secondary antibodies for 2 hours. Invitrogen: goat anti-rabbit or goat anti-mouse. Blots were washed 3 times (5 minutes each) with TBS, and incubated for 1 minute in HRP detection solution (Amersham). Films were exposed to blots and developed (SRX-101A, Konica Minolta Medical & Graphic Inc.). Re-probed blots (e.g. beta actin, AKT total, ERK total) were stripped in western blot stripping buffer (Fischer Scientific) for 10 minutes, washed once with TBS, re-blocked in TBS-T/milk for 1 hour, and incubated overnight with new primary antibody. Films were scanned (EPSON GT 20,000), and densitometry performed using UN-SCAN-IT software (Silk Scientific).

[5] = system: PI3K; details: studies in cancer cells; cited from earlier work
[6] = molecular target: T1, recombinant active caspase-3 (Homo sapiens, UniProt P42574); assay: In vitro cell-free caspase-3 drug screening assay (DEVD-AFC); format: biochemical
T1 construct: The reaction mixture was combined with recombinant active caspase-3 and a DEVD-AFC probe; purchased PromoKine (Heidelberg, Germany)
T1 sequence (P42574 29-175 limits assumed): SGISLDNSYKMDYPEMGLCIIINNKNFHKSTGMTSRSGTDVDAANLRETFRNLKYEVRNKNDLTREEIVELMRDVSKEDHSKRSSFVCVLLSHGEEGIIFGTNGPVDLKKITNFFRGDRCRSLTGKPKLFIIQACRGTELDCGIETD
T1 sequence (P42574 176-277 limits assumed): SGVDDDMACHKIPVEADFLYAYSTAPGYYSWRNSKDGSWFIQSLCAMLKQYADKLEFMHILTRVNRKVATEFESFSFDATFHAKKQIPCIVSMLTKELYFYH
Procedure: An in vitro caspase drug screening kit was purchased from PromoKine (Heidelberg, Germany), and used according to the manufacturer's instructions. Briefly, all drugs were dissolved in DMSO and diluted in double-distilled water to desired concentration. The reaction mixture was combined with recombinant active caspase-3 and a DEVD-AFC probe. Active caspase-3 cleaves the DEVD-recognition sequence and releases fluorescent AFC. The amount of AFC detected is a measure of caspase-3 activity. Reactions were prepared in black-walled 96-well plates, incubated at 37° C., and AFC release measured with an AFC filter (Ex: 405 nm, Em: 495-505 nM) on a GLOMax-Multi Microplate Reader (Promega).

Compound: CN[C@@H]1C[C@H]2O[C@@](C)([C@@H]1OC)n1c3ccccc3c3c4c(c5c6ccccc6n2c5c31)C(=O)NC4 [STS, staurosporine, reference compound]
- decrease in neuronal viability ([1]; 250 nM STS alone, 24 h): 71.5%
- cytotoxicity at 24 h, 250 nM [2]: 81.1%

Compound: O=C1c2c(O)cccc2C([C@@H]2O[C@H](CO)[C@@H](O)[C@H](O)[C@H]2O)c2cc(CO)cc(O)c21 (some centres unmarked) [aloin]
- neuronal death after H2O2 injury ([3]; post-treatment, any concentration tested, 24 hours post-injury): ineffective at any concentration tested

Compound: Cc1cc(O)c2c(c1)C(=O)c1cc(O)cc(O)c1C2=O [emodin, 6-methyl-1,3,8-trihydroxyanthraquinone]
- pAKT473 [4]: abolished baseline and injury induced AKT activation
- IC50 [5]: 3.3 µM
- activity of recombinant caspase-3 [6]: not a direct caspase inhibitor in the cell-free assay
- neuronal death after H2O2 injury ([3]; post-treatment 5 μM, 24 h): failed to protect neurons
- neuronal death after H2O2 injury ([3]; post-treatment 25 μM, 24 h): failed to protect neurons
- neuronal death after H2O2 injury ([3]; post-treatment 50 μM, 24 h): exacerbated cell death

Compound: ZVAD-fmk [reference compound]
- cell viability, comparison of neuroprotectants ([1]; 250 nM STS co-administered 24 hours): increased cell viability
- activity of recombinant caspase-3 [6]: significantly reduced the activity of recombinant caspase-3
